Test systems include UACC-257; OVCAR-3; HCT-116; SK-MEL-28; M14; COLO 205; K562; SF-268; UACC-62; CAKI-1; M19-MEL; HT-29; A498; UO-31; NCI-H522; MOLT-4; MDA-MB-231; DU-145; NCI-H226; MCF7.
Holding throughout (assay): inhibition of tumour cell growth, NCI panel, 48 h

SMILES strings stand for the structures.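 Following 48 hours of exposure in 96-well plates, responses at five concentrations were used to interpolate endpoints linearly. The concentration for 50% growth inhibition is given as GI50.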 Activity calls are given as the source filed them. Rule as the data show it: active = GI50 up to about 1.1 µM and inactive = higher.

As to `CCOc1ncnc2ccc(Cl)c(I)c12`, the GI50 is > 100 µM (inactive) with UACC-257; > 100 µM (inactive) in the assay with OVCAR-3; 82.2 µM (inactive) with HCT-116; > 100 µM (inactive) with SK-MEL-28; 75.2 µM (inactive) with M14; > 100 µM (inactive) with COLO 205. Moreover, the GI50 was 88.7 µM (inactive) in the assay on K562; 31.2 µM (inactive) with SF-268; 46.5 µM (inactive) in the assay with UACC-62; 22.6 µM (inactive) in the assay with CAKI-1; > 100 µM (inactive) with M19-MEL; > 100 µM (inactive) in the assay on HT-29. For the same compound, the GI50 was 31 µM (inactive) in the assay on A498, 27.7 µM (inactive) in the assay on UO-31 and > 10 µM (inactive) in the assay on NCI-H522.

Take `C/C(=N\OCC(O)CNCCSCc1ccccc1)c1ccccc1Cl` (configuration not stated): the GI50 was 18.5 µM (inactive) in the assay with UACC-257; 17.9 µM (inactive) in the assay on OVCAR-3; 21.6 µM (inactive) with HCT-116; 20.7 µM (inactive) with SK-MEL-28; 21.8 µM (inactive) in the assay with M14; 19.2 µM (inactive) in the assay on COLO 205. In addition, the GI50 in the assay on K562 is 38.4 µM (inactive); with MOLT-4 it was 47.5 µM (inactive); in the assay with SF-268, 17.3 µM (inactive); in the assay with MDA-MB-231, 18 µM (inactive); in the assay on DU-145, 23.3 µM (inactive); in the assay on UACC-62 it was 18.6 µM (inactive). Further, the GI50 in the assay with CAKI-1 was 17.7 µM (inactive); in the assay with HT-29 it was 20.6 µM (inactive); with A498, 15.6 µM (inactive); in the assay with NCI-H226 it was 17.6 µM (inactive); with MCF7, 19.8 µM (inactive); in the assay with UO-31, 15.7 µM (inactive). The GI50 in the assay with NCI-H522 is 28.7 µM (inactive).

Consider `Clc1ccccc1C1SCc2nc3ccccc3n21` (configuration not stated), for which the GI50 in the assay on OVCAR-3 is 14.1 µM (inactive); in the assay with HCT-116, 18.7 µM (inactive); in the assay with SK-MEL-28, 28.5 µM (inactive); in the assay on M14, 19.1 µM (inactive); with COLO 205, 49.7 µM (inactive); in the assay on K562 it was 21.6 µM (inactive). Also, the GI50 with MOLT-4 was 23.6 µM (inactive); in the assay with SF-268, 37.1 µM (inactive); in the assay with UACC-62, > 10 µM (inactive); with CAKI-1 it was 25.4 µM (inactive); in the assay on M19-MEL, 33 µM (inactive); in the assay with HT-29, 29.4 µM (inactive). The GI50 was 26.2 µM (inactive) with NCI-H226 and 9.55 µM (inactive) with NCI-H522.

`C=C(COC(C)=O)CC(/C=C(\C)CCC=C(C)C)OC(C)=O` (configuration not stated): the GI50 in the assay with OVCAR-3, in the assay on HCT-116, with SK-MEL-28, in the assay on M14, in the assay with COLO 205 and in the assay with K562 was > 100 µM (inactive) throughout. Moreover, the GI50 was 48.4 µM (inactive) with MOLT-4; > 100 µM (inactive) in the assay with SF-268; > 100 µM (inactive) in the assay with UACC-62; > 100 µM (inactive) in the assay on M19-MEL; > 100 µM (inactive) with HT-29; > 100 µM (inactive) in the assay on A498. For the same compound, the GI50 in the assay on NCI-H226, in the assay on UO-31 and with NCI-H522 was > 100 µM (inactive) each time.

Turning to `COC1OC(COCc2ccc(Cl)cc2)C(OCc2ccc(Cl)cc2)C1O` (configuration not stated), the GI50 is 16.3 µM (inactive) with UACC-257; 19.7 µM (inactive) in the assay with OVCAR-3; 16.9 µM (inactive) with SK-MEL-28; 16.1 µM (inactive) with M14; 19 µM (inactive) in the assay with COLO 205; 16.2 µM (inactive) in the assay with K562. The GI50 is 20.2 µM (inactive) with MOLT-4; 17.1 µM (inactive) in the assay with SF-268; 16.2 µM (inactive) in the assay with UACC-62; 18 µM (inactive) in the assay with CAKI-1; 19.2 µM (inactive) in the assay with M19-MEL; 17.9 µM (inactive) in the assay with HT-29. The GI50 in the assay on UO-31 is 15.1 µM (inactive); with NCI-H522 it was 12.8 µM (inactive).

On to `O=C(NCCOC(=O)OCCNC(=O)NC1CCCCC1)NC1CCCCC1`, for which the GI50 in the assay with UACC-257, in the assay on OVCAR-3, in the assay on HCT-116, with SK-MEL-28, with M14 and in the assay with COLO 205 was > 100 µM (inactive) each time. The GI50 with K562 is > 100 µM (inactive); in the assay with MOLT-4, > 100 µM (inactive); in the assay on SF-268 it was > 100 µM (inactive); in the assay on MDA-MB-231, 15.8 µM (inactive); in the assay with DU-145 it was > 100 µM (inactive); in the assay with UACC-62 it was > 100 µM (inactive). The GI50 with CAKI-1 is > 100 µM (inactive); in the assay on HT-29, > 100 µM (inactive); in the assay with A498, > 100 µM (inactive); in the assay with NCI-H226 it was > 100 µM (inactive); in the assay with MCF7, 0.834 µM (active); in the assay on UO-31 it was 71.3 µM (inactive). In the assay with NCI-H522, the GI50 is > 100 µM (inactive).

Take `O=C1c2ccccc2N2Oc3ccccc3C12c1ccccc1` (configuration not stated): the GI50 in the assay with UACC-257, in the assay with HCT-116, in the assay with SK-MEL-28, in the assay on M14, with COLO 205 and in the assay with K562 was > 100 µM (inactive) throughout. Moreover, the GI50 in the assay on MOLT-4, with SF-268, in the assay on UACC-62, in the assay with M19-MEL, in the assay with HT-29 and in the assay with A498 was > 100 µM (inactive) throughout. Moreover, the GI50 with NCI-H226 is 59.4 µM (inactive); in the assay with UO-31 it was > 100 µM (inactive); in the assay with NCI-H522 it was > 100 µM (inactive).

Regarding `OC/C=C(\I)CCCOCOCc1ccccc1`, the GI50 in the assay on OVCAR-3 is 30.8 µM (inactive); in the assay with HCT-116 it was 28.1 µM (inactive); in the assay with SK-MEL-28, 37.9 µM (inactive); in the assay with M14, 31.1 µM (inactive); in the assay with COLO 205, 67.1 µM (inactive); in the assay on K562 it was 40 µM (inactive). Moreover, the GI50 was 3.1 µM (inactive) with MOLT-4; 27.7 µM (inactive) with SF-268; 34.6 µM (inactive) in the assay on UACC-62; 32.1 µM (inactive) in the assay on M19-MEL; 36.2 µM (inactive) with HT-29; 60.8 µM (inactive) in the assay on A498. For the same compound, the GI50 was 27.4 µM (inactive) in the assay with NCI-H226, 25.4 µM (inactive) with UO-31 and 23.3 µM (inactive) in the assay with NCI-H522.

As to `CCCCCCCCCCCCC(Br)C(=O)NCC(N)=O` (configuration not stated), the GI50 was 11.4 µM (inactive) with UACC-257; 15 µM (inactive) in the assay with OVCAR-3; 1.83 µM (inactive) in the assay on HCT-116; 15.2 µM (inactive) in the assay on SK-MEL-28; 11.1 µM (inactive) in the assay with M14; 21.2 µM (inactive) with COLO 205. Besides, the GI50 was 3.42 µM (inactive) in the assay with SF-268; 5.86 µM (inactive) in the assay with UACC-62; 15 µM (inactive) with M19-MEL; 15.8 µM (inactive) in the assay with HT-29; 13.6 µM (inactive) in the assay on A498; 1.67 µM (inactive) in the assay on NCI-H226. Moreover, the GI50 was 2.09 µM (inactive) with UO-31 and 2.28 µM (inactive) in the assay on NCI-H522.

As for `O=C(CC(=O)C(F)(F)F)c1csc2ccccc12`, the GI50 in the assay on UACC-257 was 32.9 µM (inactive); in the assay on OVCAR-3 it was 40.9 µM (inactive); in the assay on HCT-116 it was 34 µM (inactive); with SK-MEL-28 it was 14.1 µM (inactive); in the assay with M14, 23.6 µM (inactive); with COLO 205, 38.5 µM (inactive). In addition, the GI50 is 24.8 µM (inactive) in the assay with K562; 17.8 µM (inactive) in the assay on MOLT-4; 30.8 µM (inactive) with SF-268; 32.2 µM (inactive) with UACC-62; 32.8 µM (inactive) in the assay with M19-MEL; 27.9 µM (inactive) in the assay with UO-31. In the assay with NCI-H522, the GI50 was 23.9 µM (inactive).

As for `CSc1ncc2c(n1)-c1ccccc1OC2NC(C)(C)C` (configuration not stated), the GI50 in the assay with UACC-257, in the assay on OVCAR-3, with HCT-116, in the assay on SK-MEL-28, in the assay with M14 and in the assay with COLO 205 was > 100 µM (inactive) throughout. Further, the GI50 was > 100 µM (inactive) with K562; 47.2 µM (inactive) with MOLT-4; 87.3 µM (inactive) with SF-268; > 100 µM (inactive) in the assay on MDA-MB-231; > 100 µM (inactive) with DU-145; 68.1 µM (inactive) in the assay on UACC-62. Moreover, the GI50 in the assay with CAKI-1 is 35.7 µM (inactive); in the assay with HT-29, 77.6 µM (inactive); in the assay with A498 it was 2.62 µM (inactive); in the assay on NCI-H226, 31.4 µM (inactive); in the assay with MCF7, 36.5 µM (inactive); in the assay on UO-31, 63.4 µM (inactive). Further, the GI50 in the assay with NCI-H522 was 27.8 µM (inactive).

`O=c1oc2c3ccc4ccccc4c3n(CCN3CCOCC3)c2c2ccccc12`: the GI50 in the assay on UACC-257 is > 100 µM (inactive); in the assay on OVCAR-3, > 100 µM (inactive); in the assay on HCT-116, > 100 µM (inactive); with SK-MEL-28, > 100 µM (inactive); in the assay on M14 it was 58.5 µM (inactive); in the assay with COLO 205, > 100 µM (inactive). Moreover, the GI50 in the assay on K562 was 3.89 µM (inactive); with MOLT-4, 1.69 µM (inactive); in the assay with SF-268, 19.7 µM (inactive); in the assay on UACC-62, 3.68 µM (inactive); in the assay with CAKI-1, 6.78 µM (inactive); in the assay on M19-MEL it was 3.76 µM (inactive). Further, the GI50 in the assay with HT-29 is 27.4 µM (inactive); with UO-31, 0.622 µM (active); in the assay on NCI-H522 it was 2.48 µM (inactive).

As for `O=C1Nc2nc3ccccc3n2N=C2CCCC12` (configuration not stated), the GI50 in the assay with UACC-257, in the assay on OVCAR-3, with HCT-116, with SK-MEL-28, with M14 and in the assay on COLO 205 was > 100 µM (inactive) each time. The GI50 in the assay on K562, in the assay with MOLT-4, in the assay with SF-268, in the assay on UACC-62, in the assay with CAKI-1 and with M19-MEL was > 100 µM (inactive) throughout. In addition, the GI50 in the assay with HT-29, with A498 and in the assay on UO-31 was > 100 µM (inactive) in each case.

For the origin of these results see ChEMBL document CHEMBL1201862, “PubChem BioAssay data set” (2004).
